Test results from article PMC7699745, “The Search for New Anticonvulsants in a Group of (2,5-Dioxopyrrolidin-1-yl)(phenyl)Acetamides with Hybrid Structure—Synthesis and In Vivo/In Vitro Studies” (International Journal of Molecular Sciences, 2020).
Like-named read-outs stand apart in the source and are kept apart here.

What was measured:
Potassium channel (hERG) = target: T1, Potassium channel (hERG) (Homo sapiens, UniProt Q12809); assay: Binding, potassium channel (hERG); conditions: 100 µM; human recombinant (HEK-293 cells)
T1 construct: Eurofins (Poitiers, France), contract assay
T1 sequence (Q12809 whole entry): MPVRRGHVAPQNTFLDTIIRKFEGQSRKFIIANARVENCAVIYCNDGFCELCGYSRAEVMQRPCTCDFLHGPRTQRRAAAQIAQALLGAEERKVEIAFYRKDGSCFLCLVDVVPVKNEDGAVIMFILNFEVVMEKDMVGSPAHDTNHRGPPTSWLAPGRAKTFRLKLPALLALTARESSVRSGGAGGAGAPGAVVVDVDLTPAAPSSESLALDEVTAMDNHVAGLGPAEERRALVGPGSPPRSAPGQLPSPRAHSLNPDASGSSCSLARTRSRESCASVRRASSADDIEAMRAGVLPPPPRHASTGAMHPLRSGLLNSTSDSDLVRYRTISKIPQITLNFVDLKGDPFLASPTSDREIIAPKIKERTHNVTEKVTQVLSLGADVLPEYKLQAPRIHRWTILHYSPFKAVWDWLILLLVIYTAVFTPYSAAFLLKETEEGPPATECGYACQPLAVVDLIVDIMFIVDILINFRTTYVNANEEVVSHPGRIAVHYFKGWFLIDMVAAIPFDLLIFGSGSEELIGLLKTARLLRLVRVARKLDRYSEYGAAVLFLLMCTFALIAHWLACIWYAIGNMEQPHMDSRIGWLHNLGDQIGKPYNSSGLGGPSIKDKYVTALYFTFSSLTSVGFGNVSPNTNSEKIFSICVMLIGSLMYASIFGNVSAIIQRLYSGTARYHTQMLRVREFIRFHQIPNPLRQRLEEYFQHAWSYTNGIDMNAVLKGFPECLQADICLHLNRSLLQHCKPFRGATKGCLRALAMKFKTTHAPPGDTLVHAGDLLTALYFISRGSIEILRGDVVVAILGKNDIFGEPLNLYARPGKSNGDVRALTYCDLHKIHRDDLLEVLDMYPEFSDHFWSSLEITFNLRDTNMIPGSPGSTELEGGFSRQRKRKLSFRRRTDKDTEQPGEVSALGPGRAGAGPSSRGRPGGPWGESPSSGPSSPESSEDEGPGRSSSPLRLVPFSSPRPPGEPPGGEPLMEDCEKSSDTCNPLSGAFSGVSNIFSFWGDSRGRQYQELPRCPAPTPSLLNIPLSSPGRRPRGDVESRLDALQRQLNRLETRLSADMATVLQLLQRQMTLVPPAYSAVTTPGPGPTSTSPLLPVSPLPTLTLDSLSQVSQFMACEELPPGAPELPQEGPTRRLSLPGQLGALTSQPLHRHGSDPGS
Experimental: (§1) Taking into consideration the structural similarities of molecules described in the current manuscript with their chemical prototypes AS-1 and DK-1, the binding studies toward aforementioned molecular targets were performed commercially for several active substances from each subseries (3, 4, 21, 24, 25, 27, 29, and 30). Furthermore, we also tested two other and well-known targets for AEDs, namely, the Cav2.2 (N-type) calcium channel and gamma-aminobutyric acid (GABA)-A receptor. With the aim of excluding potentially dangerous proarrhythmic properties for each compound, their interaction with the potassium (hERG) channel was also tested.
(§2) Binding studies were carried out commercially in Eurofines Laboratories (Poitiers, France). The functional assays were performed in Eurofins Panlabs Discovery Services Taiwan, Ltd. (New Taipei City, Taiwan). All procedures are described elsewhere (for details, see Table S4 in Supplementary Materials).
(§3) Binding studies were carried out commercially in Eurofines Laboratories (Poitiers, France). The
(§4) functional assays were performed in Eurofins Panlabs Discovery Services Taiwan, Ltd. (New Taipei
(§5) City, Taiwan). All procedures are described elsewhere (Table S4).
(§6) Table S4. In vitro binding and functional assays.
(§7) GABA-A receptor (α1,β2,γ2)
(§8) Potassium channel (hERG) 14
(§9) Cav1.2 (h) calcium ion channel cell based antagonist calcium flux assay 16,17

[1] = target: T2, GABA-A receptor (α1,β2,γ2) (Homo sapiens, UniProt P14867+P47870); assay: Radioligand binding, GABA-A receptor; design: dose or concentration left out as unconfirmed; conditions: rat cerebral cortex; read-out: % Inhibition of Control Specific Binding, GABA-A Receptor (α1,β2,γ2) (Agonist Radioligand)
T2 construct: Eurofins (Poitiers, France), contract assay
Experimental: as §1, §2, §3, §4, §5, §6, §7, §8, §9

[2] = system: 6 Hz (32 mA) seizures, mice; assay: Psychomotor 6 Hz (32 mA) seizure model; type: in vivo; conditions: for responders at 100 mg/kg / ED50: Mus musculus, ip; for responders at 100 mg/kg: 0.5 h, read-out: 6 Hz (32 mA) test, number of mice protected / number of mice tested (converted); for ED50: at TPE (0.5 h; LTG 1.0 h), 95% confidence intervals in parentheses
Cav1.2 channel = target: T3, Cav1.2 channel (Rattus norvegicus, UniProt P22002); assay: Radioligand binding, Cav1.2 channel; design: inhibition: dose or concentration left out as unconfirmed; conditions: for inhibition: rat cerebral cortex, read-out: % Inhibition of Control Specific Binding, Cav1.2 Channel (Antagonist Radioligand); for binding to voltage-gated calcium channels Cav1.2: concentration of 10 µM
T3 construct: tissue Eurofins (Poitiers, France), contract assay; host or cells: rat cerebral cortex (own knowledge of the vendor's assay)
Experimental: as §1, §2, §3, §4, §5, §6, §7, §8, §9

Cav2.2 channel = target: T4, Cav2.2 channel (Rattus norvegicus, UniProt Q02294); assay: Radioligand binding, Cav2.2 channel; design: dose or concentration left out as unconfirmed; conditions: rat cerebral cortex; read-out: % Inhibition of Control Specific Binding, Cav2.2 Channel (Antagonist Radioligand)
T4 construct: tissue Eurofins (Poitiers, France), contract assay; host or cells: rat cerebral cortex (own knowledge of the vendor's assay)
Experimental: as §1, §2, §3, §4, §5, §6, §7, §8, §9

Na+ channel (site 2) = assay: Radioligand binding, Na+ channel (site 2); conditions: 10 µM; rat cerebral cortex
Experimental: as §1, §2, §3, §4, §5
(§10) Table S4. In vitro binding and functional assays. […]

[3] = system: motor coordination of mice; assay: Rotarod test for acute neurological toxicity; conditions: for impairment of motor coordination of mice: doses as high as 300 mg/kg; for Rotarod test, number of mice / number of mice tested: i.p., 100 mg/kg, 0.5 h
[4] = Rotarod test for acute neurological toxicity; conditions: mouse, in vivo, ip
MES seizures, mice = assay: Maximal electroshock (MES) seizure test; type: in vivo; conditions: Mus musculus, ip; for responders at 100 mg/kg: 0.5 h, i.p.; for ED50: at TPE (0.5 h; LTG 1.0 h), 95% confidence intervals in parentheses
[5] = target: T5, Cav1.2 (h) calcium ion channel (Homo sapiens, UniProt Q13936); assay: Cav1.2 (h) cell-based antagonist calcium flux assay; conditions: for inhibition at 10 µM: HEK293, human recombinant (HEK-293 cells), read-out: % Inhibition of Control Agonist Response, Cav1.2 (h) calcium flux; for antagonist properties in cell-based flux studies (Cav1.2): 10 µM
T5 construct: host or cells: HEK-293
T5 sequence (Q13936 whole entry): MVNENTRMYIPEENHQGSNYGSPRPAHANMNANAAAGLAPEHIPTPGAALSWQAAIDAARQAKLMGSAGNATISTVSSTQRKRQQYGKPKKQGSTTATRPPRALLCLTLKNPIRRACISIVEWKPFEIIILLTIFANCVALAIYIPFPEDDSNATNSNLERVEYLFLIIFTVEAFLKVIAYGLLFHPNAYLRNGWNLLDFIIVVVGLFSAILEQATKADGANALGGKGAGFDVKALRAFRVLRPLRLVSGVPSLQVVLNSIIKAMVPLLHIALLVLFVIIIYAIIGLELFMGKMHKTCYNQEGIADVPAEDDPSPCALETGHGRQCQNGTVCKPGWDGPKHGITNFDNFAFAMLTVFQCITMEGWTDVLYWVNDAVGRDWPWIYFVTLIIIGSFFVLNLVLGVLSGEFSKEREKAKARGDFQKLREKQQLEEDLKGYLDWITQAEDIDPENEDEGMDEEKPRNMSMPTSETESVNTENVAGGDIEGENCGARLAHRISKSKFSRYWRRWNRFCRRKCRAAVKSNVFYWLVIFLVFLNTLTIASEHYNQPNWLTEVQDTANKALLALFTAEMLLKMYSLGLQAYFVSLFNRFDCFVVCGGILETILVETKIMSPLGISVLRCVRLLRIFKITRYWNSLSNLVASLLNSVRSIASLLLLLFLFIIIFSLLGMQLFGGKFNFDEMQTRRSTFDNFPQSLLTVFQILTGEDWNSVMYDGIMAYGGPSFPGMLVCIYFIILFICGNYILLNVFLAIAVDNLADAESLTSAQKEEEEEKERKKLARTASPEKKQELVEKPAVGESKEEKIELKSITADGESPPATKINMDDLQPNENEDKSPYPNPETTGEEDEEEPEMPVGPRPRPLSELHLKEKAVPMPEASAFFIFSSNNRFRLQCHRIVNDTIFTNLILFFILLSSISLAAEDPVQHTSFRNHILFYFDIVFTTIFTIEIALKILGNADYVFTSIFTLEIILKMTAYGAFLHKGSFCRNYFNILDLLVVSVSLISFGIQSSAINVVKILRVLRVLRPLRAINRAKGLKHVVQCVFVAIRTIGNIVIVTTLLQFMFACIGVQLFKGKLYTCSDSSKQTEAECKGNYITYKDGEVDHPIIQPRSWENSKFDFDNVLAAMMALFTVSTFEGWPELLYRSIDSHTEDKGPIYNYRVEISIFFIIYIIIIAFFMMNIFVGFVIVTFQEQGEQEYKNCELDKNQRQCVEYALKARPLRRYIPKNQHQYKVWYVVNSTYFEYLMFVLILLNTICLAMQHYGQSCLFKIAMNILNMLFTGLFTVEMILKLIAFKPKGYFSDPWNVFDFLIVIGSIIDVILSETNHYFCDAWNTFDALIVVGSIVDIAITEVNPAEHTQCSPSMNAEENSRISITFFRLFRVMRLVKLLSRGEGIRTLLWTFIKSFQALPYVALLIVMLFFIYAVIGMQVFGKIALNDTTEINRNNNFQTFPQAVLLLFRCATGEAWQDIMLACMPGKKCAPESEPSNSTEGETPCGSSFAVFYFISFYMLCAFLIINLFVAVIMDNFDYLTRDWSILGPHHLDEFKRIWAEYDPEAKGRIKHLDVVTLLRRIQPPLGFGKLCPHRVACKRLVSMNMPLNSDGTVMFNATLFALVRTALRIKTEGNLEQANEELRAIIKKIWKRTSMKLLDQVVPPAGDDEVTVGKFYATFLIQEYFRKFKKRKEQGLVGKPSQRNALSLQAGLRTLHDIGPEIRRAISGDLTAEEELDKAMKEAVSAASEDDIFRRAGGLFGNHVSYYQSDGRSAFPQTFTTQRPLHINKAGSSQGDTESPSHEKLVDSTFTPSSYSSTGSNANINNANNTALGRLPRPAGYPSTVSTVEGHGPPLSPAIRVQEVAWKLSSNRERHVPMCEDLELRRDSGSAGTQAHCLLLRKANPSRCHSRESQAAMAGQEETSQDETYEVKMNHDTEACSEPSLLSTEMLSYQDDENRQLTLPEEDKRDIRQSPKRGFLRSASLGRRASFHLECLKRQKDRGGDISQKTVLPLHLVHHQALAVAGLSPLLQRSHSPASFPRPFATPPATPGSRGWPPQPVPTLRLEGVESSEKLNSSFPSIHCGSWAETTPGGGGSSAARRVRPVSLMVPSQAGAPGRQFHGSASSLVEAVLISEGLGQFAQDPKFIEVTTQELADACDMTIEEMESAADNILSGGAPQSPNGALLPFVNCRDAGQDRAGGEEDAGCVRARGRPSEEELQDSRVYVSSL
T5 sequence (Q08289 whole entry partner): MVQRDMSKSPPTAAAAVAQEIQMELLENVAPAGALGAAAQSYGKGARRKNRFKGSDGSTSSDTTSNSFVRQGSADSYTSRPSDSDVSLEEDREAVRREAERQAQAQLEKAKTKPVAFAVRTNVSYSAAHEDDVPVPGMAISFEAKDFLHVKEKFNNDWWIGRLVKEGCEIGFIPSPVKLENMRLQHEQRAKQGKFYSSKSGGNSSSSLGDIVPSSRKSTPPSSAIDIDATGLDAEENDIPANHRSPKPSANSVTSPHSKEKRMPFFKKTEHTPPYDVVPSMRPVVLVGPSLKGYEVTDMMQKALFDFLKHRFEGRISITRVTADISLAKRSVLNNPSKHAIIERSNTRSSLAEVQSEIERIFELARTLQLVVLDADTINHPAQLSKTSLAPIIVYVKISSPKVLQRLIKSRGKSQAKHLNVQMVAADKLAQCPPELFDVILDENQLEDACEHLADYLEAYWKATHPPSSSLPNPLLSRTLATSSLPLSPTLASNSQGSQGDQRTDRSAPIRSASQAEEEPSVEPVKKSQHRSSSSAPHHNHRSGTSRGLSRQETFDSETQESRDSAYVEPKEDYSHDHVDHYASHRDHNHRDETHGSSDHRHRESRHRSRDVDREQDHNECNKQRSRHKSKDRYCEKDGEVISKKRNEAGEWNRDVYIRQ
T5 sequence (P54289 25-956 partner limits assumed): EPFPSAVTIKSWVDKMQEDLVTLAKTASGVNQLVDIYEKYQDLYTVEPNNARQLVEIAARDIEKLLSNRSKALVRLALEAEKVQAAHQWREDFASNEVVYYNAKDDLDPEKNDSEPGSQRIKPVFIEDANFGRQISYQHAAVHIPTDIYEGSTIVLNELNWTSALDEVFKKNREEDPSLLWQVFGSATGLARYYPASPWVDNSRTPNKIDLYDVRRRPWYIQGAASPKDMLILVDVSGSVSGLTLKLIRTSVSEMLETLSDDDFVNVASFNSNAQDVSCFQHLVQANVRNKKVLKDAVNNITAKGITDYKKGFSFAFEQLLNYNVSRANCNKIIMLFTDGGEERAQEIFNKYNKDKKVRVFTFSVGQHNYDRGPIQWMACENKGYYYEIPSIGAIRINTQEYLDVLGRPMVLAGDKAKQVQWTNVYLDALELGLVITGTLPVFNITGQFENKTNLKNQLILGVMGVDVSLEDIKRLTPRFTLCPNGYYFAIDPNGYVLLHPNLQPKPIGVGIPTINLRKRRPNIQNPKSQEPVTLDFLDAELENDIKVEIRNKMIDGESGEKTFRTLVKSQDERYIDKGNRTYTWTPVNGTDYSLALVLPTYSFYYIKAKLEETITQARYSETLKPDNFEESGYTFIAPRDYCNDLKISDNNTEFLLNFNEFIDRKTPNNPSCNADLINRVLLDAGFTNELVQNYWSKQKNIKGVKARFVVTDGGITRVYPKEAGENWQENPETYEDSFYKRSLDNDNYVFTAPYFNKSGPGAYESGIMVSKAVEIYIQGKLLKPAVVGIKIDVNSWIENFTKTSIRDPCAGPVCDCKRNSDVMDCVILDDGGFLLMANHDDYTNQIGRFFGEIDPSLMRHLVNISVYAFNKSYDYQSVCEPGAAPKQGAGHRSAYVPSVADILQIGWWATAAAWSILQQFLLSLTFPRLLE
T5 sequence (P54289 957-1103 partner limits assumed): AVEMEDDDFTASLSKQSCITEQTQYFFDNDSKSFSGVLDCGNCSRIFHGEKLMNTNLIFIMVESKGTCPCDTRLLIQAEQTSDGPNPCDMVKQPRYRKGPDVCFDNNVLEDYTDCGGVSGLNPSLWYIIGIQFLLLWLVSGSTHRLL
Experimental: as §2, §3, §4, §5, §10, §9

[6] = Parallel artificial membrane permeability assay (PAMPA)
Experimental: Passive diffusion was tested in the parallel artificial membrane permeability assay (PAMPA) and expressed as the permeability coefficient (Pe). A highly permeable compound, caffeine (CFN), and a poorly permeable compound, norfloxacin (NFX), were used as the references.
Precoated PAMPA Plate System Gentest™ was provided by Corning, (Tewksbury, MA, USA).

CYP2C9 = CYP2C9 (Homo sapiens, UniProt P11712); assay: Luminescent CYP2C9 P450-Glo assay
[7] = Metabolic stability in human liver microsomes; type: in vitro ADME; conditions: 120 min incubation with HLMs
From the text: Human liver microsomes (HLMs) were used for metabolic stability determination. Moreover, the most probable phase I reactions and structures of metabolites were proposed according to ion fragment analyses with the in silico support of MetaSite 6.0.1 software. […] On the other hand, an excellent metabolic stability of compound 24 was observed. Less than 4% of this derivative was converted into double-hydroxylated metabolite M1 (Figures S3, S4, and S7, Supplementary Materials). Finally, two monohydroxylated metabolites (M1, M2) were found in the reaction mixture with HLMs and 30, and around 17% of this compound was metabolized (Figures S5–S7, Supplementary Materials).
These assays were performed on human liver microsomes (HLMs), purchased from Sigma-Aldrich (St. Louis, MO, USA), according to [14].

CYP3A4 = target: T6, CYP3A4 (Homo sapiens, UniProt P08684); assay: Luminescent CYP3A4 P450-Glo assay; type: in vitro ADME; conditions: 1 µM
T6 construct: purchased Promega (Madison, WI, USA)

PTZ seizures, mice = conditions: known AED, background statement; cited from earlier work
[8] = system: 6 Hz (32 mA) seizures, mice; conditions: known AED, background statement; cited from earlier work
[9] = groups of four, read-out: protection in the MES test
[10] = read-out: MES test, number of mice protected / number of mice tested (converted)

Row | Structure (SMILES) | % Inhibition of Control Specific Binding, Potassium Channel (hERG) (Potassium channel (hERG)) [%] | inhibition [1] [%] | responders at 100 mg/kg [2] [%] | ED50 [2] [mg/kg] | inhibition (Cav1.2 channel) [%] | inhibition (Cav2.2 channel) [%] | % Inhibition of Control Specific Binding, Na+ Channel (Site 2) (Antagonist Radioligand) (Na+ channel (site 2)) [%] | impairment of motor coordination of mice [3] | Rotarod test, number of mice / number of mice tested [3] | TD50 at 0.5 h [4] [mg/kg] | responders at 100 mg/kg (MES seizures, mice; [9]) [%] | responders at 100 mg/kg (MES seizures, mice; [10]) [%] | ED50 (MES seizures, mice) [mg/kg] | melting point [°C] | inhibition at 10 µM [5] [%] | binding to voltage-gated calcium channels Cav1.2 (Cav1.2 channel) | antagonist properties in cell-based flux studies (Cav1.2) [5] | also measured
1 | O=C(Nc1ccccc1)C(c1ccccc1)N1C(=O)CCC1=O (stereo not drawn) [Compound 3, 2-(2,5-Dioxopyrrolidin-1-yl)-N,2-diphenylacetamide] | 0.8 | 5.2 | 75 | 92.5 | 9 | 3.6 | 10.8 | did not impair motor coordination | 0/4 | > 300 | ≥ 50 | 50 | > 130 |  |  |  |  | 
2 | O=C(NCc1ccccc1C(F)(F)F)C(c1ccccc1)N1C(=O)CCC1=O (stereo not drawn) [Compound 21, 2-(2,5-Dioxopyrrolidin-1-yl)-2-phenyl-N-(2-(trifluoromethyl)benzyl)acetamide] | 6.3 | 1.2 | 25 |  | 26.6 | 0.2 | 18.8 | did not impair motor coordination | 0/4 | > 300 | ≥ 50 | 50 | 49.6 | 137.7 to 139.1 | 27 |  |  | effectiveness in the 6 Hz test ([2]; i.p.): not effective
3 | O=C(NCc1cccc(OC(F)(F)F)c1)C(c1ccccc1)N1C(=O)CCC1=O (stereo not drawn) [Compound 24, 2-(2,5-Dioxopyrrolidin-1-yl)-2-phenyl-N-(3-(trifluoromethoxy)benzyl)acetamide] | 4.4 | -0.8 | 100 | 43.8 | 36.5 | 5.5 | 22.3 | did not impair motor coordination | 0/4 | > 300 | ≥ 50 | 75 | > 130 | 129.6 to 130.4 | 38.8 | moderate binding | moderate antagonist properties | Papp [6]: 10.9 ± 0.5 ×10⁻⁶ cm/s; CYP2C9 activity, % of control (CYP2C9; 10 and 25 µM): up to 140 % of control; compound converted into metabolites / metabolized [7]: Less than 4%; parent compound remained in the reaction mixture [7]: 96.49%; effect on CYP3A4 activity (CYP3A4): slightly inhibited CYP3A4 activity
4 | O=C(NCCc1ccccc1)C(c1ccccc1)N1C(=O)CCC1=O (stereo not drawn) [Compound 25, 2-(2,5-Dioxopyrrolidin-1-yl)-N-phenethyl-2-phenylacetamide] | 4.8 | 3.6 | 75 | 88.9 | 19 | 2.5 | 14.8 |  | 1/4 | 210 | ≥ 50 | 75 | 87.9 |  |  |  |  | acute neurological toxicity (rotarod) ([3]; at doses around or below 200 mg/kg): moderate acute neurological toxicity
5 | O=C(NCCc1cccc(Cl)c1)C(c1ccccc1)N1C(=O)CCC1=O (stereo not drawn) [Compound 27, N-(3-Chlorophenethyl)-2-(2,5-dioxopyrrolidin-1-yl)-2-phenylacetamide] | 2.7 | 0.7 | 75 | 36.3 | 38.3 | 3.8 | 20.1 |  | 0/4 | > 300 |  | 50 |  | 137.4 to 138.2 | 40 | moderate binding | moderate antagonist properties | 
6 | O=C(NCCc1cccc(C(F)(F)F)c1)C(c1ccccc1)N1C(=O)CCC1=O (stereo not drawn) [Compound 29, 2-(2,5-Dioxopyrrolidin-1-yl)-2-phenyl-N-(3-(trifluoromethyl)phenethyl)acetamide] | 3.4 | 2.1 | 75 | 49.3 | 44.2 | -0.6 | 18.3 |  | 0/4 | 179 | 100 | 75 | 55.4 | 149.2 to 150.4 | 45 | moderate binding | moderate antagonist properties | 
7 | CCC1(C)CC(=O)NC1=O (stereo not drawn) [ETX, ethosuximide] |  |  |  |  |  |  |  |  |  |  |  |  |  |  |  |  |  | activity in the (sc)PTZ model (PTZ seizures, mice): protected mice only in the scPTZ model
8 | CC[C@@H](C(N)=O)N1CCCC1=O [LEV, levetiracetam] |  |  |  |  |  |  |  |  |  |  |  |  |  |  |  |  |  | activity in the 6 Hz (32 mA) model [8]: showed efficacy only in the 6 Hz seizure model
9 | Nc1ccc(S(=O)(=O)Nc2ccnn2-c2ccccc2)cc1 [SE, sulfaphenazole, reference compound] |  |  |  |  |  |  |  |  |  |  |  |  |  |  |  |  |  | effect on CYP2C9 activity (CYP2C9; 1 µM): almost completely blocked CYP2C9 activity
